The text below walks through data of patent US8975265B2, “Substituted imidazo[1,2-a]pyrimidines and —pyridines” (Bayer Intellectual Property GmbH, priority 2010, dated 2015).

Experiment [1] has as its target His-tagged human recombinant kinase full-length Akt1 (Homo sapiens (Human), UniProt P31749). Briefly: Akt1 kinase assay (TR-FRET). It is filed as biochemical. The conditions noted are these: 10 μM ATP; read-out: Akt1, median IC50. The protocol:
Biological Assay 1.0: Akt1 Kinase Assay
Akt1 inhibitory activity of compounds of the present invention was quantified employing the Akt1 TR-FRET assay as described in the following paragraphs.
As substrate for the kinase reaction the biotinylated peptide biotin-Ahx-[…] (C-terminus in amide form) was used which can be purchased e.g. from the company Biosynthan GmbH (Berlin-Buch, Germany).
For the assay 50 nl of a 100 fold concentrated solution of the test compound in DMSO was pipetted into a black low volume 384 well microtiter plate (Greiner Bio-One, Frickenhausen, Germany), 2 μl of a solution of Akt1 in assay buffer [50 mM TRIS/HCl pH 7.5, 5 mM MgCl2, 1 mM dithiothreitol, 0.02% (v/v) Triton X-100 (Sigma)] were added and the mixture was incubated for 15 min at 22° C. to allow prebinding of the test compounds to the enzyme before the start of the kinase reaction. […] The concentration of Akt1 in the assay was adjusted depending of the activity of the enzyme lot and was chosen appropriate to have the assay in the linear range, typical enzyme concentrations were in the range of about 0.05 ng/μl (final conc. in the 5 μl assay volume).
The resulting mixture was incubated 1 h at 22° C. to allow the binding of the biotinylated phosphorylated peptide to the streptavidine-XL665 and the antibodies. Subsequently the amount of phosphorylated substrate was evaluated by measurement of the resonance energy transfer from the anti-mouse-IgG-Eu-Chelate to the streptavidine-XL665.
(In general: TR-FRET usually uses a lanthanide donor and a delayed reading to cut background.)

The test system of experiment [2] is KPL-4 breast cancer cell line. Briefly: Tumor cell proliferation assay (CellTiter-Glo, 72 h), KPL-4. It is filed as cell-based. To be noted: KPL4, 72h drug exposure. The protocol: Biological Assay 4.0: Tumor Cell Proliferation Assays
Compounds were tested in a cell-based assay that measures the capacity of the compounds to inhibit tumour cell proliferation following a 72h drug exposure. Cell viability is determined using CellTiter-Glow® (CTG, Promega, cat# G7571/2/3). The CellTiter-Glo® Luminescent Cell Viability Assay is a homogeneous method to determine the number of viable cells in culture. Detection is based on using the luciferase reaction to measure the amount of ATP from viable cells. The amount of ATP in cells correlates with cell viability. Within minutes after a loss of membrane integrity, cells lose the ability to synthesize ATP, and endogenous ATPases destroy any remaining ATP; thus the levels of ATP fall precipitously.
For each cell line assayed, cells were plated onto a separate plate for determination of […] at t=0 hour and t=72 hour time points. Following overnight incubation at 37° C., chemiluminescence values for the t=0 samples were determined after adding 10 μl medium and 100 μl CTG solution according to manufacture protocol. Plates for the t=72 hour time points were treated with compounds diluted into growth medium at ten times final concentration added in 10 μL to the cell culture plate. Cells were then incubated for 72 hours at 37° C. Chemiluminescence values for the t=72 hour samples were determined. […] Experiments were controlled using a reference compound as standard.
(In ATP-based viability assays light output follows the ATP content of the culture.)

For experiment [3], the system named is p-AKT1/2/3-S473 in KPL4 breast tumour cell line. Briefly: Cellular p-AKT1/2/3-S473 assay. Type of experiment: cell-based. The conditions noted are these: KPL4 breast tumour cell line, 2 hours treatment; read-out: pAKT-S743 median IC50. The protocol: The molecular mechanism of action was investigated in a set of experiments to assess the inhibition of the PI3K-AKT-mTOR pathway in responsive cell lines such as KPL4 breast tumour cell line (PIK3CAH1047R, HER20/E and hormone independent). The phospho-substrates of PI3K-AKT-mTOR axis were used as the read-outs to reflect pathway inhibition. Cells were seeded at 60-80% confluency per well in 96-well cell culture plates. After overnight incubation at 37° C. 5% CO2, cells were treated with compounds and vehicle at 37° C. for 2 hours. […] All measurements where at least done in duplicates and confirmed by independent repetition.
Alternatively pAKT-S473 was measured using the “Akt Duplex” of the MULTI-SPOT® Assay System (Fa. Meso Scale Discovery, Cat# N41100B-1) following manufacturers instructions. Each assay used 20 μg of protein extract and measured total AKT and p-AKT content simultaneously in one well. All measurements where at least done in duplicates and confirmed by independent repetition. Values for P-AKT are expressed as percentage of P-AKT level compared to total-AKT content of the extracts.

Sequence of His-tagged human recombinant kinase full-length Akt1 (P31749 whole entry): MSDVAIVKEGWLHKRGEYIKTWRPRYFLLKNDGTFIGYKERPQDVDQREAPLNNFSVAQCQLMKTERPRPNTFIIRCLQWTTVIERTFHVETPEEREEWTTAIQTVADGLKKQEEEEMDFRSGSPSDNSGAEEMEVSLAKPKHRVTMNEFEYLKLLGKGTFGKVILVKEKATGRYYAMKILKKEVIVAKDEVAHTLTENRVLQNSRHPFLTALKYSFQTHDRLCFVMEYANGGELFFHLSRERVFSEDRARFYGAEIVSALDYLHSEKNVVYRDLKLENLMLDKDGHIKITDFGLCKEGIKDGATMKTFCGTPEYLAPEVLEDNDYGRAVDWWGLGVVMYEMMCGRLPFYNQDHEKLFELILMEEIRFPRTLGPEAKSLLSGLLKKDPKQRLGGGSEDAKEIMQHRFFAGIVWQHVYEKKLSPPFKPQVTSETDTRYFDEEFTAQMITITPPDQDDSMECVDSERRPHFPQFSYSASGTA

By IC50 is commonly meant the concentration that inhibits the measured activity by half. With `NC1(c2ccc(-c3nc4ncccn4c3-c3ccccc3)cc2)CCC1` [Example 1-0, 1-[4-(3-phenyl-imidazo[1,2-a]pyrimidin-2-yl)-phenyl]-cyclobutylamine], the IC50 in experiment [1] was 348 nM; in experiment [2] it was 1500 nM.

Regarding `Cc1ccn2c(-c3ccccc3)c(-c3ccc(C4(N)CCC4)cc3)nc2n1` [Example 1-1], the IC50 in experiment [2] amounted to 2000 nM.

In the case of `NC1(c2ccc(-c3nc4nc(C5CC5)ccn4c3-c3ccccc3)cc2)CCC1` [Example 1-2], in experiment [2], the 50% inhibitory concentration (IC50) turned out to be 1800 nM.

As for `Cc1cnc2nc(-c3ccc(C4(N)CCC4)cc3)c(-c3ccccc3)n2c1` [Example 1-6], the IC50 in experiment [2] is 1000 nM.

`COc1cnc2nc(-c3ccc(C4(N)CCC4)cc3)c(-c3ccccc3)n2c1` [Example 1-7]: the half-inhibitory concentration (IC50) was 38 nM in experiment [3] and 1000 nM in experiment [2].

`CCOc1cnc2nc(-c3ccc(C4(N)CCC4)cc3)c(-c3ccccc3)n2c1` [Example 1-8] came in with an IC50 in experiment [2] of 2300 nM.

As for `NC1(c2ccc(-c3nc4cc(-n5cccn5)ccn4c3-c3ccccc3)cc2)CCC1` [Example 1-11], the IC50 stood at 102 nM in experiment [1], 37 nM in experiment [3] and 1500 nM in experiment [2].

Take `CNC(=O)Nc1ccn2c(-c3ccccc3)c(-c3ccc(C4(N)CCC4)cc3)nc2c1` [Example 1-14]: the figures for the IC50 in experiment [1], in experiment [3] and in experiment [2] were 588 nM, 1170 nM and 9800 nM, respectively.

Take `NC1(c2ccc(-c3nc4nc(O)ccn4c3-c3ccccc3)cc2)CCC1` [Example 2-1]: the IC50 in experiment [1] was found to be 544 nM; in experiment [2] it was 5400 nM.

In the case of `CCCOc1ccn2c(-c3ccccc3)c(-c3ccc(C4(N)CCC4)cc3)nc2n1` [Example 2-2], the IC50 in experiment [3] turned out to be 250 nM; in experiment [2], 1700 nM.

As for `N#Cc1cccn2c(-c3ccccc3)c(-c3ccc(C4(N)CCC4)cc3)nc12` [Example 2-3], the IC50 worked out at 32 nM in experiment [3] and 2400 nM in experiment [2].

Take `Cc1ccn2c(-c3ccccc3)c(-c3ccc(C4(N)CCC4)cc3)nc2c1` [Example 2-4]: the concentration for half-maximal inhibition (IC50) in experiment [1] came to 829 nM; in experiment [3], 292 nM; in experiment [2] it was 2000 nM.

As to `Cc1cccn2c(-c3ccccc3)c(-c3ccc(C4(N)CCC4)cc3)nc12` [Example 2-5], the 50% inhibitory concentration (IC50) came out at 100 nM in experiment [1], 209 nM in experiment [3] and 4300 nM in experiment [2].

With `N#Cc1ccn2c(-c3ccccc3)c(-c3ccc(C4(N)CCC4)cc3)nc2c1` [Example 2-6], the IC50 in experiment [1] turned out to be 145 nM; in experiment [3], 333 nM; in experiment [2] it was 1600 nM.

Turning to `COc1ccn2c(-c3ccccc3)c(-c3ccc(C4(N)CCC4)cc3)nc2c1` [Example 2-8], the concentration for half-maximal inhibition (IC50) was 96 nM in experiment [1], 237 nM in experiment [3] and 1800 nM in experiment [2].

Consider `CNC(=O)c1ccc2nc(-c3ccc(C4(N)CCC4)cc3)c(-c3ccccc3)n2c1` [Example 2-9], for which the IC50 in experiment [3] stood at 62 nM; in experiment [2], 900 nM.

On to `COCc1ccc2nc(-c3ccc(C4(N)CCC4)cc3)c(-c3ccccc3)n2c1` [Example 2-10], for which the results for the concentration for half-maximal inhibition (IC50) in experiment [3] and in experiment [2] were 428 nM and 1900 nM, respectively.

As to `COc1cccn2c(-c3ccccc3)c(-c3ccc(C4(N)CCC4)cc3)nc12` [Example 2-12], the half-inhibitory concentration (IC50) in experiment [3] is 159 nM; in experiment [2] it was 1300 nM.

`CC(O)c1ccc2nc(-c3ccc(C4(N)CCC4)cc3)c(-c3ccccc3)n2c1` (centres unmarked) [Example 2-13]: the IC50 in experiment [3] turned out to be 758 nM; in experiment [2], 2200 nM.

Consider `NC1(c2ccc(-c3nc4cc(CO)ccn4c3-c3ccccc3)cc2)CCC1` [Example 2-14], for which the half-maximal inhibitory concentration (IC50) in experiment [3] was found to be 510 nM; in experiment [2], 3000 nM.

`NC1(c2ccc(-c3nc4c(CO)cccn4c3-c3ccccc3)cc2)CCC1` [Example 2-15]: the figures for the IC50 in experiment [3] and in experiment [2] were 163 nM and 3200 nM, respectively.

Regarding `NC1(c2ccc(-c3nc4ccc(Br)cn4c3-c3ccccc3)cc2)CCC1` [Example 2-16], the IC50 in experiment [3] was found to be 477 nM; in experiment [2] it was 1900 nM.

Regarding `COc1ccc2nc(-c3ccc(C4(N)CCC4)cc3)c(-c3ccccc3)n2c1` [Example 2-17], the IC50 amounted to 36 nM in experiment [1], 35 nM in experiment [3] and 1500 nM in experiment [2].

Take `CCOc1cccn2c(-c3ccccc3)c(-c3ccc(C4(N)CCC4)cc3)nc12` [Example 2-19]: the IC50 is 93 nM in experiment [3] and 1600 nM in experiment [2].

Turning to `NC1(c2ccc(-c3nc4cc(-c5cn[nH]c5)ccn4c3-c3ccccc3)cc2)CCC1` [Example 2-22], the figures for the half-inhibitory concentration (IC50) in experiment [1], in experiment [3] and in experiment [2] were 188 nM, 142 nM and 1500 nM, respectively.

With `COCCNCc1ccc2nc(-c3ccc(C4(N)CCC4)cc3)c(-c3ccccc3)n2c1` [Example 2-24], the 50% inhibitory concentration (IC50) in experiment [3] turned out to be 3320 nM; in experiment [2], 4500 nM.

As to `CCOc1ccn2c(-c3ccccc3)c(-c3ccc(C4(N)CCC4)cc3)nc2n1` [Example 2-29], the IC50 was determined as 190 nM in experiment [1] and 1800 nM in experiment [2].

On to `CC(C)Oc1ccn2c(-c3ccccc3)c(-c3ccc(C4(N)CCC4)cc3)nc2n1` [Example 2-30], for which the concentration for half-maximal inhibition (IC50) in experiment [3] is 464 nM; in experiment [2], 2300 nM.

In experiment [2], `NC1(c2ccc(-c3nc4nc(OC5CCCCC5)ccn4c3-c3ccccc3)cc2)CCC1` [Example 2-31] returned an IC50 of 1900 nM.

For the compound `NC1(c2ccc(-c3nc4nc(Oc5ccccc5)ccn4c3-c3ccccc3)cc2)CCC1` [Example 2-32], inhibition in experiment [2] was half-maximal at 1800 nM (IC50).

With `COC(=O)c1ccc2nc(-c3ccc(C4(N)CCC4)cc3)c(-c3ccccc3)n2c1` [Example 2-36], the IC50 in experiment [3] stood at 1020 nM; in experiment [2], 10000 nM.

As for `NC1(c2ccc(-c3nc4c(Br)cccn4c3-c3ccccc3)cc2)CCC1` [Example 2-39], the IC50 is 32 nM in experiment [3] and 1600 nM in experiment [2].

With `NC1(c2ccc(-c3nc4cc(Br)ccn4c3-c3ccccc3)cc2)CCC1` [Example 2-40], the figures for the IC50 in experiment [3] and in experiment [2] were 237 nM and 1900 nM, respectively.

`NC1(c2ccc(-c3nc4c(F)cccn4c3-c3ccccc3)cc2)CCC1` [Example 2-44]: the IC50 is 48 nM in experiment [3] and 1500 nM in experiment [2].

Consider `NC1(c2ccc(-c3nc4c(Cl)cccn4c3-c3ccccc3)cc2)CCC1` [Example 2-45], for which the 50% inhibitory concentration (IC50) in experiment [3] worked out at 28 nM; in experiment [2] it was 1800 nM.

For the compound `NC1(c2ccc(-c3nc4ccc(F)cn4c3-c3ccccc3)cc2)CCC1` [Example 2-46], the IC50 in experiment [3] amounted to 59 nM; in experiment [2], 1800 nM.

On to `C=Cc1cccn2c(-c3ccccc3)c(-c3ccc(C4(N)CCC4)cc3)nc12` [Example 2-49], for which the figures for the IC50 in experiment [3] and in experiment [2] were 303 nM and 8700 nM, respectively.

`NC1(c2ccc(-c3nc4cc(-c5ccccn5)ccn4c3-c3ccccc3)cc2)CCC1` [Example 2-111]: the figures for the half-maximal inhibitory concentration (IC50) in experiment [3] and in experiment [2] were 140 nM and 1800 nM, respectively.

With `NC(=O)/C=C/c1ccn2c(-c3ccccc3)c(-c3ccc(C4(N)CCC4)cc3)nc2c1` [Example 2-124], the IC50 in experiment [3] was 101 nM; in experiment [2], 2300 nM.

`NC1(c2ccc(-c3nc4ccc(-c5cn[nH]c5)cn4c3-c3ccccc3)cc2)CCC1` [Example 2-132]: the figures for the IC50 in experiment [3] and in experiment [2] were 40 nM and 1700 nM, respectively.

Consider `N[C@]1(c2ccc(-c3nc4nc(O)ccn4c3-c3ccccc3)cc2)C[C@H](O)C1` [Example 3-0, 2-[4-(cis-1-amino-3-hydroxy-cyclobutyl)-phenyl]-3-phenyl-imidazo[1,2-a]pyrimidin-7-ol], for which the IC50 in experiment [1] is 384 nM.
